Laboratory results: patent publication US20070191356A1, “Pyridobenzoxazine derivative” (priority 2004, published 2007)
Converted amounts (≈) assume the structure as drawn. Like-named read-outs stand apart in the source and are kept apart here.

Columns and labels:
[1] = system: S. epidermidis, 56500; assay: Antimicrobial activity MIC, standard method of Japanese Society of Chemotherapy; type: cell-based
Procedure: (§1) The antimicrobial activity of the compounds of the present invention is measured in accordance with the standard method designated by Japanese Society of Chemotherapy and MIC (microgram/ml) values are shown as its results in Table 1.

[2] = system: E. coli, NIHJ; assay: as above; type: cell-based
Procedure: as §1

[3] = system: S. aureus, 870307; assay: as above; type: cell-based
Procedure: as §1

[4] = system: K. pneumoniae, Type I; assay: as above; type: cell-based
Procedure: as §1

[5] = system: Ps. aeruginosa, 32121; assay: as above; type: cell-based
Procedure: as §1

[6] = system: Str. pneumoniae, J24; assay: as above; type: cell-based
Procedure: as §1

[7] = system: Str. faecalis, ATCC-19433; assay: as above; type: cell-based
Procedure: as §1

[8] = system: Pr. vulgalis, 08601; assay: as above; type: cell-based
Procedure: as §1

[9] = system: S. flexneri, 2A 5503; assay: as above; type: cell-based
Procedure: as §1

[10] = system: S. maltophilia, IID-1275; assay: as above; type: cell-based
Procedure: as §1

[11] = system: Ps. aeruginosa, 32104; assay: as above; type: cell-based
Procedure: as §1

[12] = system: S. aureus, 209P; assay: as above; type: cell-based
Procedure: as §1

[13] = system: Str. pyogenes, G-36; assay: as above; type: cell-based
Procedure: as §1

[14] = system: Ser. marcescens, 10100; assay: as above; type: cell-based
Procedure: as §1

[15] = system: Slc:ddY male mice; assay: Single intravenous dosing toxicity test in mice; type: in vivo; conditions: single intravenous dose 150 mg/kg, six-week-old Slc:ddY male mice
Procedure: The single intravenous dosing toxicity test in mice using the invention compound was carried out in the following manner. The compound was dissolved in and diluted with 0.1 mol/l NaOH/physiological saline. After the diluted solution was sterilized by filtration through a 0.22 μm filter of Millex GS, the resulting sterilized solution was intravenously administered to six-week-old Slc:ddY male mice at an administration rate of 10 ml/kg or 0.2 ml/min as a single dose. Similar to Test 1, the compound obtained in Example 2 of Patent Document 2 was employed as a comparative compound.

[16] = Staphylococcus epidermidis, 56500, S. epidermidis, read-out: MIC
[17] = Klebsiella pneumoniae, read-out: MIC
[18] = Pseudomonas aeruginosa, 32121, Ps. aeruginosa, read-out: MIC
[19] = Streptococcus pneumoniae, J24, Str. pneumoniae, read-out: MIC
[20] = Enterococcus faecalis, ATCC19433, Str. faecalis, read-out: MIC
[21] = Stenotrophomonas maltophilia, IID1275, S. maltophilia, read-out: MIC
[22] = Pseudomonas aeruginosa, 32104, Ps. aeruginosa, read-out: MIC
[23] = Staphylococcus aureus, read-out: MIC
[24] = Serratia marcescens, 10100, Ser. marcescens, read-out: MIC
[25] = Ps. aeruginosa, listed as Ex. 3
[26] = Escherichia coli, read-out: MIC
[27] = Staphylococcus aureus, 870307, S. aureus, read-out: MIC
[28] = Shigella flexneri, 2A5503, S. flexneri, read-out: MIC
[29] = Streptococcus pyogenes, G36, Str. pyogenes, read-out: MIC

Structure (SMILES) | MIC [1, 16] [µg/mL] | MIC [4, 17] [µg/mL] | MIC [5, 18] [µg/mL] | MIC [6, 19] [µg/mL] | MIC [7, 20] [µg/mL] | MIC [10, 21] [µg/mL] | MIC [11, 22] [µg/mL] | MIC [12, 23] [µg/mL] | MIC [14, 24] [µg/mL] | melting point [°C] | MIC [2, 26] [µg/mL] | MIC [3, 27] [µg/mL] | MIC ([8]; read-out: MIC) [µg/mL] | MIC [9, 28] [µg/mL] | MIC [13, 29] [µg/mL] | other results
C[C@H]1COc2c(N3CC(N)C(C(F)F)C3)c(F)cc3c(=O)c(C(=O)O)cn1c23 (single isomer, unassigned) [Example 2] | 0.1 (≈ 0.252 µM) | 0.05 (≈ 0.126 µM) | 0.05 (≈ 0.126 µM) | 0.2 (≈ 0.503 µM) | 0.39 (≈ 0.981 µM) | 0.2 (≈ 0.503 µM) | 0.2 (≈ 0.503 µM) | 0.025 (≈ 0.0629 µM) | 0.05 (≈ 0.126 µM) | 247 to 252 |  |  |  |  |  | MIC ([2]; listed as Ex. 2): ≦0.003 microgram/ml; MIC ([3]; S. aureus, listed as Ex. 2): 1.56 microgram/ml; MIC ([8]; listed as Ex. 2): 0.012 microgram/ml; MIC ([9]; S. flexneri, listed as Ex. 2): 0.012 microgram/ml; MIC ([13]; Str. pyogenes, listed as Ex. 2): 0.2 microgram/ml
C[C@H]1COc2c(N3CC(N)C(C(F)F)C3)c(F)cc3c(=O)c(C(=O)O)cn1c23 (single isomer, unassigned) [Example 3] |  |  |  |  |  |  |  |  |  | 264 to 268 |  |  |  |  |  | MIC ([1]; S. epidermidis, listed as Ex. 3): 0.2 microgram/ml; MIC ([2]; listed as Ex. 3): 0.012 microgram/ml; MIC ([3]; S. aureus, listed as Ex. 3): 3.13 microgram/ml; MIC ([4]; listed as Ex. 3): 0.1 microgram/ml; MIC [5, 25]: 0.1 microgram/ml; MIC ([6]; Str. pneumoniae, listed as Ex. 3): 0.39 microgram/ml; MIC ([7]; Str. faecalis, listed as Ex. 3): 0.78 microgram/ml; MIC ([8]; listed as Ex. 3): 0.025 microgram/ml; MIC ([9]; S. flexneri, listed as Ex. 3): 0.025 microgram/ml; MIC ([10]; S. maltophilia, listed as Ex. 3): 0.39 microgram/ml; MIC [11, 25]: 0.39 microgram/ml; MIC ([12]; listed as Ex. 3): 0.05 microgram/ml; MIC ([13]; Str. pyogenes, listed as Ex. 3): 0.78 microgram/ml; MIC ([14]; Ser. marcescens, listed as Ex. 3): 0.1 microgram/ml
O=C(O)c1cn(C2CC2)c2cc(N3CCNCC3)c(F)cc2c1=O [CPFX, ciprofloxacin, reference compound] | 0.2 (≈ 0.604 µM) | 0.025 (≈ 0.0754 µM) | 0.025 (≈ 0.0754 µM) | 0.1 (≈ 0.302 µM) | 0.78 (≈ 2.35 µM) | 0.78 (≈ 2.35 µM) | 0.005 (≈ 0.0151 µM) | 0.1 (≈ 0.302 µM) | 0.025 (≈ 0.0754 µM) |  | ≤ 0.003 | 3.13 (≈ 9.45 µM) | ≤ 0.003 | 0.006 (≈ 0.0181 µM) | 1.56 (≈ 4.71 µM) | 
COc1c(N2C[C@H](CF)[C@H](N)C2)c(F)cc2c(=O)c(C(=O)O)cn(C3CC3)c12 [Comparative Compound, reference compound] | 0.05 (≈ 0.127 µM) | 0.025 (≈ 0.0636 µM) | 0.05 (≈ 0.127 µM) | 0.025 (≈ 0.0636 µM) | 0.1 (≈ 0.254 µM) | 0.05 (≈ 0.127 µM) | 0.2 (≈ 0.508 µM) | 0.012 (≈ 0.0305 µM) | 0.05 (≈ 0.127 µM) |  | ≤ 0.003 | 0.39 (≈ 0.991 µM) | 0.006 (≈ 0.0153 µM) | 0.006 (≈ 0.0153 µM) | 0.1 (≈ 0.254 µM) | Number of deaths/total number ([15]; 150 mg/kg): 3/5; Number of deaths/total number ([15]; listed as comparative compound, 150 mg/kg): three of five mice died
C[C@H]1COc2c(N3C[C@H](CF)[C@H](N)C3)c(F)cc3c(=O)c(C(=O)O)cn1c23 [Example 1, 10-[3-(S)-Amino-4-(S)-fluoromethylpyrrolidin-1-yl]-9-fluoro-2,3-dihydro-3-(S)-methyl-7-oxo-7H-pyridol-[1,2,3-de][1,4]benzoxazine-6-carboxylic acid] | 0.1 (≈ 0.264 µM) | 0.05 (≈ 0.132 µM) | 0.025 (≈ 0.0659 µM) | 0.1 (≈ 0.264 µM) | 0.2 (≈ 0.527 µM) | 0.39 (≈ 1.03 µM) | 0.1 (≈ 0.264 µM) | 0.025 (≈ 0.0659 µM) | 0.05 (≈ 0.132 µM) |  | 0.006 (≈ 0.0158 µM) | 1.56 (≈ 4.11 µM) | 0.012 (≈ 0.0316 µM) | 0.012 (≈ 0.0316 µM) | 0.2 (≈ 0.527 µM) | Number of deaths/total number [15]: 0/5
C[C@H]1COc2c(N3CCN(C)CC3)c(F)cc3c(=O)c(C(=O)O)cn1c23 [LVFX, levofloxacin, reference compound] | 0.39 (≈ 1.08 µM) | 0.1 (≈ 0.277 µM) | 0.1 (≈ 0.277 µM) | 0.78 (≈ 2.16 µM) | 0.78 (≈ 2.16 µM) | 0.39 (≈ 1.08 µM) | 0.2 (≈ 0.553 µM) | 0.2 (≈ 0.553 µM) | 0.1 (≈ 0.277 µM) |  | 0.12 (≈ 0.332 µM) | > 6.25 | 0.012 (≈ 0.0332 µM) | 0.025 (≈ 0.0692 µM) | 0.2 (≈ 0.553 µM) | 
